Drawing on patent US20100056526A1, “HETEROMONOCYCLIC COMPOUND AND USE THEREOF” (Takeda Pharmaceutical Company Limited, priority 2006, published 2010), this text covers IC50 and activation for 18 compounds.

Counter-ions that a name gives are not always drawn. Like-named read-outs stand apart in the source and are kept apart here.

In one assay the target is T1, human AT1 receptor (Homo sapiens, UniProt P30556).
T1 construct: expressed in transfected cells; host or cells: CHO-K1
T1 sequence (P30556 1-359): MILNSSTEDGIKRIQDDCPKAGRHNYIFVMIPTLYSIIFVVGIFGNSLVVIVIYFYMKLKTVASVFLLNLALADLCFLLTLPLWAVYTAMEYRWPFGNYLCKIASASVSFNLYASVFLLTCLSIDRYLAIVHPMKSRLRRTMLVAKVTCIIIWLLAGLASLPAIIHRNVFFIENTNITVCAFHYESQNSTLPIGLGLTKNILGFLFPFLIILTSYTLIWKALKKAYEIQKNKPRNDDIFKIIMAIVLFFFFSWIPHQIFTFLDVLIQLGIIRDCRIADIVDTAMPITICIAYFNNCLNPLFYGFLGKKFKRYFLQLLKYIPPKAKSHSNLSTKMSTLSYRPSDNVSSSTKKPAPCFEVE
Description: Binding assay using human AT1 receptor-expressing CHO-K1 cell membrane fraction ([125I]-angiotensin II). The settings on record: 22.5 pM [125I]-angiotensin II, 9 μg AT1 membrane, 1 hr room temperature; read-out: AT1 receptor binding inhibitory action (IC50 (nM)). An outline of the steps: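 CHO-K1 membranes stably expressing AT1 (9 μg) incubated with 22.5 pM [125I]-angiotensin II and compound in 50 mM Tris pH 7.4, 10 mM MgCl2, with or without 0.3 mg/mL fatty acid-free BSA, 1 hr at room temperature. Bound radioactivity counted after GF/C filtration; nonspecific binding with 1 μM CV-11974; IC50 calculated.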

In another assay the target is T2, PPARγ (Homo sapiens, UniProt P37231).
T2 construct: expressed in transfected cells; host or cells: CHO-K1
T2 sequence (P37231 1-477 isoform P37231-2): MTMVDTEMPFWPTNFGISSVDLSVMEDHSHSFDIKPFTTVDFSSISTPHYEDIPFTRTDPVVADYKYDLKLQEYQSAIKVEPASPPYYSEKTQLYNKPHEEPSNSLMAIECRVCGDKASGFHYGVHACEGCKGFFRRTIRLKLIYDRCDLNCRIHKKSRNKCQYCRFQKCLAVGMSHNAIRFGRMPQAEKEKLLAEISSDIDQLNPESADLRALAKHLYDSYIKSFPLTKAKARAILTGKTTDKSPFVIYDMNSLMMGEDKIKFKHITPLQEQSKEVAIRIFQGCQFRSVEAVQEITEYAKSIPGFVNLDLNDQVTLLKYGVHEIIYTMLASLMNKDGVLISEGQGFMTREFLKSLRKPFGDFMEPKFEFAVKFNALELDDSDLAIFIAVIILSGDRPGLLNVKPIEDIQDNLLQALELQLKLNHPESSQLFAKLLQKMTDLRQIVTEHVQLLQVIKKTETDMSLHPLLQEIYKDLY
T2 sequence (P19793 1-462 partner): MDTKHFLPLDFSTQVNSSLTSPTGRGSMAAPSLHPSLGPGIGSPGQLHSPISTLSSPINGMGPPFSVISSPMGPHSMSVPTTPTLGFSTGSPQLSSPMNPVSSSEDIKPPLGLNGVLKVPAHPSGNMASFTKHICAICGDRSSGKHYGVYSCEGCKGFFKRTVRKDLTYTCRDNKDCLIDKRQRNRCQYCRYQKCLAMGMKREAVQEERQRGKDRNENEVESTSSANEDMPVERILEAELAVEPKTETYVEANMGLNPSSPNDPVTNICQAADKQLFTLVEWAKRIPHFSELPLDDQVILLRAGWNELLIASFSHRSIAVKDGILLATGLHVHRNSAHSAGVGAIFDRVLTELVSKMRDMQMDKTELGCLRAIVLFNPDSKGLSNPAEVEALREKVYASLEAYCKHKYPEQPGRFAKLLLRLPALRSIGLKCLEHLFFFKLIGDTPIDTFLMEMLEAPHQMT
Put plainly: Evaluation of PPARγ activating action (luciferase reporter in PPARγ:RXRα:4ERPP/CHO-K1 cells). It is filed as cell-based. The settings on record: CHO-K1, 24 h, read-out: PPARγ activating action (activation % (10^−6 M)). Put shortly: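 CHO-K1 cells stably carrying PPARγ, RXRα and a 4ERPP luciferase reporter were treated with compound for 1 day at 37 °C in F12 medium with 0.1% fatty acid-free BSA. Luciferase activity was read and scaled between no compound (0%) and reference agonist compound X at 1 μM (100%).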

Setting [1] is: test compound 10^−6 M, luciferase activity relative to control compound X (1 μM) = 100%, non-administration group = 0%.

One may read the IC50 as the concentration that gives 50% inhibition. On to `CCCCc1nc(C)c(C(O)c2ccccc2)c(=O)n1Cc1ccc(-c2ccccc2-c2noc(=O)[nH]2)cc1` (stereo not drawn) [Example 452, 2-butyl-5-[hydroxy(phenyl)methyl]-6-methyl-3-{[2′-(5-oxo-4,5-dihydro-1,2,4-oxadiazol-3-yl)biphenyl-4-yl]methyl}pyrimidin-4(3H)-one], for which the 50% inhibitory concentration (IC50) at human AT1 receptor was 2.1 nM. The activation at 1 µM on PPARγ (setting [1]) came out at 52.9%.
The corresponding values for `CCCCc1nc(C)c(C(=O)c2ccccc2)c(=O)n1Cc1ccc(-c2ccccc2-c2noc(=O)[nH]2)cc1` [Example 453, 5-benzoyl-2-butyl-6-methyl-3-{[2′-(5-oxo-4,5-dihydro-1,2,4-oxadiazol-3-yl)biphenyl-4-yl]methyl}pyrimidin-4(3H)-one] are 2.9 nM and 22.5%.
The corresponding values for `CCCc1nc(CC)c(CN2CCOCC2)c(=O)n1Cc1ccc(-c2ccccc2-c2noc(=O)[nH]2)cc1` [Example 455, 6-ethyl-5-(morpholin-4-ylmethyl)-3-{[2′-(5-oxo-4,5-dihydro-1,2,4-oxadiazol-3-yl)biphenyl-4-yl]methyl}-2-propylpyrimidin-4(3H)-one] are 2 nM and 16%.
Turning to `CCCc1nc(CC)c(-c2ccc(OC)cc2)c(=O)n1Cc1ccc(-c2ccccc2-c2noc(O)n2)cc1` [Example 456, 6-ethyl-5-(4-methoxyphenyl)-3-{[2′-(5-oxo-4,5-dihydro-1,2,4-oxadiazol-3-yl)biphenyl-4-yl]methyl}-2-propylpyrimidin-4(3H)-one], the IC50 at human AT1 receptor was 1.8 nM. Besides, the activation at 1 µM at PPARγ (setting [1]) was 30%.
The corresponding values for `CCCc1nc(CC)c(-c2ccc(OC(F)(F)F)cc2)c(=O)n1Cc1ccc(-c2ccccc2-c2noc(O)n2)cc1` [Example 457, 6-ethyl-3-{[2′-(5-oxo-4,5-dihydro-1,2,4-oxadiazol-3-yl)biphenyl-4-yl]methyl}-2-propyl-5-[4-(trifluoromethoxy)phenyl]pyrimidin-4(3H)-one] are 3.5 nM and 36%.
In the same order, the values of `CCCc1nc(CC)c(-c2ccc(OC(C)C)cc2F)c(=O)n1Cc1ccc(-c2ccccc2-c2noc(O)n2)cc1` [Example 458, 6-ethyl-5-(2-fluoro-4-isopropoxyphenyl)-3-{[2′-(5-oxo-4,5-dihydro-1,2,4-oxadiazol-3-yl)biphenyl-4-yl]methyl}-2-propylpyrimidin-4(3H)-one] are 2.2 nM and 36%.
Consider `CCCOc1ccc(-c2c(CC)nc(CCC)n(Cc3ccc(-c4ccccc4-c4noc(=O)[nH]4)cc3)c2=O)cc1` [Example 459, 6-ethyl-3-{[2′-(5-oxo-4,5-dihydro-1,2,4-oxadiazol-3-yl)biphenyl-4-yl]methyl}-5-(4-propoxyphenyl)-2-propylpyrimidin-4(3H)-one], for which the IC50 on human AT1 receptor came to 2.1 nM. On PPARγ (setting [1]), the activation at 1 µM was 40%.
In the same order, the values of `CCCc1nc(CC)c(-c2ccc(OC(C)C)c(F)c2)c(=O)n1Cc1ccc(-c2ccccc2-c2noc(=O)[nH]2)cc1` [Example 460, 6-ethyl-5-(3-fluoro-4-isopropoxyphenyl)-3-{[2′-(5-oxo-4,5-dihydro-1,2,4-oxadiazol-3-yl)biphenyl-4-yl]methyl}-2-propylpyrimidin-4(3H)-one] are 2.2 nM and 30%.
In the same order, the values of `CCCc1nc(CC)c(-c2ccc(OC(C)C)nc2)c(=O)n1Cc1ccc(-c2ccccc2-c2noc(O)n2)cc1F` [Example 467, 6-ethyl-3-{[3-fluoro-2′-(5-oxo-4,5-dihydro-1,2,4-oxadiazol-3-yl)biphenyl-4-yl]methyl}-5-(6-isopropoxypyridin-3-yl)-2-propylpyrimidin-4(3H)-one] are 2.5 nM and 35.7%.
In the case of `CCCc1nc(CC)c(C(O)C(C)C)c(=O)n1Cc1ccc(-c2ccccc2-c2noc(O)n2)cc1` (stereo not drawn) [Example 473, 6-ethyl-5-(1-hydroxy-2-methylpropyl)-3-{[2′-(5-oxo-4,5-dihydro-1,2,4-oxadiazol-3-yl)biphenyl-4-yl]methyl}-2-propylpyrimidin-4(3H)-one potassium salt], on human AT1 receptor, the 50% inhibitory concentration (IC50) is 3.6 nM. Further, the activation at 1 µM on PPARγ is 15.7%.
In the case of `CCCc1nc(C)c(-c2ccc(OC(C)(C)C)cc2)c(=O)n1Cc1ccc(-c2ccccc2-c2noc(O)n2)cc1F` [Example 475, 5-(4-tert-butoxyphenyl)-3-{[3-fluoro-2′-(5-oxo-4,5-dihydro-1,2,4-oxadiazol-3-yl)biphenyl-4-yl]methyl}-6-methyl-2-propylpyrimidin-4(3H)-one], the IC50 at human AT1 receptor was 2 nM. In addition, on PPARγ (setting [1]), the activation at 1 µM is 28.7%.
`CCCc1nc(C)c(Oc2ccc(OC)cc2)c(=O)n1Cc1ccc(-c2ccccc2-c2noc(O)n2)cc1` [Example 476, 5-(4-methoxyphenoxy)-6-methyl-3-{[2′-(5-oxo-4,5-dihydro-1,2,4-oxadiazol-3-yl)biphenyl-4-yl]methyl}-2-propylpyrimidin-4(3H)-one potassium salt]: on human AT1 receptor, the half-inhibitory concentration (IC50) came to 2.1 nM. Moreover, on PPARγ, the activation at 1 µM was determined as 18.5%.
For `CCCc1nc(CC)c(Oc2ccc(CC)cc2)c(=O)n1Cc1ccc(-c2ccccc2-c2noc(O)n2)cc1` [Example 480, 6-ethyl-5-(4-ethylphenoxy)-3-{[2′-(5-oxo-4,5-dihydro-1,2,4-oxadiazol-3-yl)biphenyl-4-yl]methyl}-2-propylpyrimidin-4(3H)-one], the IC50 on human AT1 receptor was 3.2 nM. Moreover, the activation at 1 µM on PPARγ (setting [1]) worked out at 30.8%.
The corresponding values for `CCCc1nc(C)c(-c2ccc(OC(C)C)nc2)c(=O)n1Cc1ccc(-c2ccccc2-c2noc(=O)[nH]2)cc1F` [Example 482, 3-{[3-fluoro-2′-(5-oxo-4,5-dihydro-1,2,4-oxadiazol-3-yl)biphenyl-4-yl]methyl}-5-(6-isopropoxypyridin-3-yl)-6-methyl-2-propylpyrimidin-4(3H)-one] are 1.9 nM and 30.4%.
The corresponding values for `CCCc1nc(CC)c(-c2ccc(OC(C)C)nc2)c(=O)n1Cc1ccc(-c2ccccc2-c2noc(=O)[nH]2)cc1` [Example 483, 6-ethyl-5-(6-isopropoxypyridin-3-yl)-3-{[2′-(5-oxo-4,5-dihydro-1,2,4-oxadiazol-3-yl)biphenyl-4-yl]methyl}-2-propylpyrimidin-4(3H)-one] are 2.4 nM and 31.5%.
The corresponding values for `CCCc1nc(CC)c(Oc2cc(F)ccc2F)c(=O)n1Cc1ccc(-c2ccccc2-c2noc(=O)[nH]2)cc1` [Example 484, 5-(2,5-difluorophenoxy)-6-ethyl-3-{[2′-(5-oxo-4,5-dihydro-1,2,4-oxadiazol-3-yl)biphenyl-4-yl]methyl}-2-propylpyrimidin-4(3H)-one] are 2.3 nM and 19.4%.
Regarding `CCCc1nc(CC)c(Oc2ccc3c(c2)OCO3)c(=O)n1Cc1ccc(-c2ccccc2-c2noc(O)n2)cc1` [Example 485, 5-(1,3-benzodioxol-5-yloxy)-6-ethyl-3-{[2′-(5-oxo-4,5-dihydro-1,2,4-oxadiazol-3-yl)biphenyl-4-yl]methyl}-2-propylpyrimidin-4(3H)-one], at human AT1 receptor, the IC50 was 2 nM. Further, the activation at 1 µM at PPARγ (setting [1]) came to 23.5%.
For `CCCc1nc(CC)c(Oc2cccc(OC)c2)c(=O)n1Cc1ccc(-c2ccccc2-c2noc(O)n2)cc1` [Example 488, 6-ethyl-5-(3-methoxyphenoxy)-3-{[2′-(5-oxo-4,5-dihydro-1,2,4-oxadiazol-3-yl)biphenyl-4-yl]methyl}-2-propylpyrimidin-4(3H)-one potassium salt], the IC50 at human AT1 receptor was 1.9 nM. The activation at 1 µM at PPARγ stood at 16.7%.
